Source: patent publication US9150837B2, “Polyethylene glycolated superoxide dismutase mimetics” (Galera Therapeutics, LLC, priority 2004, dated 2015)

Test system: carrageenan-induced hyperalgesia
Settings: 0.1 mg/kg, s.c.
Procedure: Male Sprague-Dawley rats (175-200 g, Harlan Sprague Dawley, Indianapolis, Ind., USA) were housed and cared for in accordance with the guidelines of the Institutional Animal Care and Use Committee and in accordance with NIH guidelines on laboratory animal welfare. Rats received a subplantar injection of carrageenan (0.1 ml of a 1% suspension in 0.85% saline) into the right hind paw. A hyperalgesic response to heat was determined in the animals by Hargreaves' method (Hargreaves et al., 1988). Rats were individually confined and acclimated to Plexiglas chambers for 30 min. A mobile unit consisting of a high intensity projector bulb was positioned to deliver a thermal stimulus directly to an individual hind paw from beneath the chamber. The withdrawal latency period of injected and contralateral paws was determined to the nearest 0.1 sec with an electronic clock circuit and thermocouple. […] Each point will represent the change in withdrawal latency compared with control measurements taken prior to carrageenan injection.

## CN1CC[C@]23c4c5ccc(O)c4O[C@H]2[C@@H](O)C=C[C@H]3[C@H]1C5 [morphine]
  inhibition of hyperalgesia: modest inhibition of hyperalgesia
